Counter-ions that a name gives are not always drawn.
Columns and labels:
Type in all cases: physicochemical
[1] = DVS water uptake / hygroscopicity; details: for hygroscopicity (in words): conclusion from DVS where run
[2] = XRPD before and after DVS (form change); details: state of sample post DVS
[3] = stressing at 40° C./75% RH (form change)
[4] = appearance under ambient condition; details: wet solid under ambient condition; not tested by TGA/DSC

| Compound | water uptake (DVS) ([1]; at 25° C./80% RH) | hygroscopicity (in words) [1] | form change after DVS [2] | water uptake (DVS) ([1]; from 0% to 80% RH) | water uptake (DVS) ([1]; from 50% RH to 80% RH at 25° C.) | form change after stressing [3] | hygroscopicity (in words) [4] |
| --- | --- | --- | --- | --- | --- | --- | --- |
| CNc1cc(C)nc(Nc2cnc(OC)c(OC[C@@H]3CCN(C)C3)c2)n1 [Compound 1R Hydrochloride Salt Type A] | ~8% | hygroscopic | No change in XRPD pattern | – | – | – | – |
| CNc1cc(C2CCOCC2)c2cc(OC)c(OCCCN3CCCC3)cc2n1 [Compound 2 Freebase Type A] | – | slightly hygroscopic | No form change | around 1.0% | – | – | – |
| CNc1cc(C)nc(Nc2ccc(OC)c(CNCCN3CCCC3)c2)n1 [Compound 3 Freebase Type A] | – | hygroscopic | No form change | around 12.9% | – | – | – |
| CNc1cc(C)nc(Nc2ccc(OC)c(CNCCN3CCCC3)c2)n1 [Compound 3 Glycolate Salt Type B] | – | – | deliquescence | around 45.3% | – | – | – |
| CNc1cc(C)nc(Nc2ccc(OC)c(CNCCN3CCCC3)c2)n1 [Compound 3 Hydrochloride Salt Type A] | – | – | new hydrate form | – | – | – | – |
| CNc1cc(C)nc(Nc2ccc(OC)c(CNCCN3CCCC3)c2)n1 [Compound 3 Hydrochloride Salt Type B] | 15.3% | hygroscopic | change of XRPD pattern was observed | – | – | – | – |
| CNc1cc(C)nc(Nc2ccc(OC)c(CNCCN3CCCC3)c2)n1 [Compound 3 Sulfate Sate Type A] | 20.5% | highly hygroscopic | No significant form change | – | – | – | – |
| CNc1cc(C)nc(Nc2ccc(OC)c(OC[C@H](O)CN3CCCC3)c2)n1 [Compound 4R Freebase Type C] | – | hygroscopic | No form change | around 8.7% | – | – | – |
| CNc1cc(C)nc(Nc2ccc(OC)c(OC[C@H](O)CN3CCCC3)c2)n1 [Compound 4R Hydrochloride Salt Type A] | – | hygroscopic | change of XRPD pattern was observed | – | around 4% | – | – |
| CNc1cc(C)nc(Nc2ccc(OC)c(OC[C@H](O)CN3CCCC3)c2)n1 [Compound 4R Hydrochloride Salt Type B] | – | very hygroscopic | No form change | around 17.4% | – | – | – |
| CNc1cc(C)nc(Nc2ccc(OC)c(OC[C@H](O)CN3CCCC3)c2)n1 [Compound 4R Succinate Salt Type A] | – | hygroscopic | No form change | around 9.6% | – | – | – |
| CNc1cc(C)nc(Nc2ccc(OC)c(OC[C@H](O)CN3CCC3)c2)n1 [Compound 5R Fumarate Salt Type A] | 7.6% | hygroscopic | No significant form change | – | – | – | – |
| CNc1cc(C)nc(Nc2ccc(OC)c(OC[C@H](O)CN3CCC3)c2)n1 [Compound 5R Gentisate Salt Type E] | – | – | – | – | – | No form change | – |
| CNc1cc(C)nc(Nc2ccc(OC)c(OC[C@H](O)CN3CCC3)c2)n1 [Compound 5R Hippurate Salt Type A] | 2.6% | hygroscopic | No significant form change | – | – | – | – |
| CNCc1cnn(-c2cc(Nc3nc(C)cc(NC)n3)ccc2OC)c1 [Compound 6 Adipate Salt Type B] | – | hygroscopic | form change from Compound 6 Adipate Salt Type B to Compound 6 Adipate Salt Type A | around 8.8% | – | – | – |
| CNCc1cnn(-c2cc(Nc3nc(C)cc(NC)n3)ccc2OC)c1 [Compound 6 Glycolate Salt Type A] | – | – | – | – | – | – | high hygroscopicity |
| CNCc1cnn(-c2cc(Nc3nc(C)cc(NC)n3)ccc2OC)c1 [Compound 6 Hydrochloride Salt Type A] | – | very hygroscopic | Form change was observed | around 19.4% | – | – | – |
| CNCc1cnn(-c2cc(Nc3nc(C)cc(NC)n3)ccc2OC)c1 [Compound 6 freebase Type A] | – | hygroscopic | No form change | around 4.4% | – | – | – |
| CNCc1cnn(-c2c(OC)ccc(Nc3nc(C)cc(NC)n3)c2F)c1 [Compound 7 Fumarate Salt Type A] | – | low hygroscopicity | – | – | – | – | – |
| CNCc1cnn(-c2c(OC)ccc(Nc3nc(C)cc(NC)n3)c2F)c1 [Compound 7 Fumarate Salt Type C] | – | – | – | around 1.9% | – | – | – |
